Inconclusive results and toxic doses are left out. Cut-off read from the data, not from the text of the source: active = T/C of 150% or more; inactive = T/C below 125%.
System: L1210 leukemia ip in BDF1 mice, survival T/C
Experiment: NCI In Vivo Anticancer Drug Screen. Data for tumor model L1210 Leukemia (intraperitoneal) in B6D2F1 (BDF1) mice
Details: endpoint: mean survival time, higher = longer survival
Procedure, shortened: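 Survival endpoint. Drug-treated group vs vehicle group, expressed as T divided by C. Tumor passaged by transplantation.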

[1] = dose: 50.0 mg/kg/injection, schedule: Q01DX009 (ip), vehicle: saline with Tween-80
[2] = dose: 100.0 mg/kg/injection, schedule: Q01DX009 (ip), vehicle: saline with Tween-80
[3] = dose: 200.0 mg/kg/injection, schedule: Q01DX009 (ip), vehicle: saline with Tween-80
[4] = dose: 100.0 mg/kg/injection, schedule: Q01DX001 (ip), vehicle: Klucel (hydroxypropylcellulose) (HPC)
[5] = dose: 200.0 mg/kg/injection, schedule: Q01DX001 (ip), vehicle: Klucel (hydroxypropylcellulose) (HPC)
[6] = dose: 400.0 mg/kg/injection, schedule: Q01DX001 (ip), vehicle: Klucel (hydroxypropylcellulose) (HPC)
[7] = dose: 100.0 mg/kg/injection, schedule: Q04DX003 (ip), vehicle: Klucel (hydroxypropylcellulose) (HPC)
[8] = dose: 200.0 mg/kg/injection, schedule: Q04DX003 (ip), vehicle: Klucel (hydroxypropylcellulose) (HPC)
[9] = dose: 100.0 mg/kg/injection, schedule: Q01DX001 (ip), vehicle: saline
[10] = dose: 200.0 mg/kg/injection, schedule: Q01DX001 (ip), vehicle: saline
[11] = dose: 400.0 mg/kg/injection, schedule: Q01DX001 (ip), vehicle: saline
[12] = dose: 100.0 mg/kg/injection, schedule: Q01DX009 (ip), vehicle: saline
[13] = dose: 100.0 mg/kg/injection, schedule: Q04DX003 (ip), vehicle: saline
[14] = dose: 200.0 mg/kg/injection, schedule: Q01DX009 (ip), vehicle: saline
[15] = dose: 200.0 mg/kg/injection, schedule: Q04DX003 (ip), vehicle: saline
[16] = dose: 400.0 mg/kg/injection, schedule: Q01DX009 (ip), vehicle: saline
[17] = dose: 400.0 mg/kg/injection, schedule: Q04DX003 (ip), vehicle: saline
[18] = dose: 25.0 mg/kg/injection, schedule: Q01DX009 (ip), vehicle: saline
[19] = dose: 50.0 mg/kg/injection, schedule: Q01DX009 (ip), vehicle: saline
[20] = dose: 400.0 mg/kg/injection, schedule: Q01DX009 (ip), vehicle: saline with Tween-80
[21] = dose: 100.0 mg/kg/injection, schedule: Q01DX001 (ip), vehicle: carboxymethylcellulose (CMC)
[22] = dose: 200.0 mg/kg/injection, schedule: Q01DX001 (ip), vehicle: carboxymethylcellulose (CMC)
[23] = dose: 400.0 mg/kg/injection, schedule: Q01DX001 (ip), vehicle: carboxymethylcellulose (CMC)
[24] = dose: 100.0 mg/kg/injection, schedule: Q04DX003 (ip), vehicle: saline with Tween-80
[25] = dose: 200.0 mg/kg/injection, schedule: Q04DX003 (ip), vehicle: saline with Tween-80
[26] = dose: 400.0 mg/kg/injection, schedule: Q04DX003 (ip), vehicle: saline with Tween-80

Measured: T/C

Cc1ccc(CNCC(=O)O)cc1
inactive: dose: 50.0 mg/kg/injection, schedule: Q01DX009 (ip), vehicle: water 102 % of control | dose: 100.0 mg/kg/injection, schedule: Q01DX009 (ip), vehicle: water 98 % of control | dose: 100.0 mg/kg/injection, schedule: Q01DX Z (ip), vehicle: saline 96 % of control | dose: 100.0 mg/kg/injection, schedule: Q04DX003 (ip), vehicle: water 95 % of control | dose: 200.0 mg/kg/injection, schedule: Q01DX009 (ip), vehicle: water 95 % of control | dose: 200.0 mg/kg/injection, schedule: Q01DX Z (ip), vehicle: saline 104 % of control | dose: 200.0 mg/kg/injection, schedule: Q04DX003 (ip), vehicle: water 88 % of control

Nc1ccc(N)c(N)n1
inactive: dose: 6.25 mg/kg/injection, schedule: Q04DX003 (ip), vehicle: saline 95 % of control | dose: 12.5 mg/kg/injection, schedule: Q04DX003 (ip), vehicle: saline 97 % of control | dose: 15.0 mg/kg/injection, schedule: Q01DX001 (ip), vehicle: saline 107 % of control | dose: 25.0 mg/kg/injection, schedule: Q04DX003 (ip), vehicle: saline 97 % of control | dose: 30.0 mg/kg/injection, schedule: Q01DX001 (ip), vehicle: saline 107 % of control | dose: 60.0 mg/kg/injection, schedule: Q01DX001 (ip), vehicle: saline 97 % of control

O=C1c2ccccc2CCC1C1(O)C(=O)Nc2ccccc21 (configuration not stated)
inactive: [1] 104 % of control | [2] 101 % of control | [3] 93 % of control

CCOC(=O)c1ccc(Cn2c(C)cc(=O)n(Cc3ccc(C(=O)OCC)cc3)c2=O)cc1
inactive: [4] 102 % of control | [5] 94 % of control | [6] 91 % of control

O=[N+]([O-])c1cc(Br)cc2c1nc(NCCO)c1ccccc12
inactive: [7] 103 % of control | [8] 119 % of control | dose: 400.0 mg/kg/injection, schedule: Q04DX003 (ip), vehicle: Klucel (hydroxypropylcellulose) (HPC) 101 % of control

COc1cc(CC(=O)N(C)C)c([N+](=O)[O-])cc1OC
inactive: [9] 87 % of control | [10] 93 % of control | [11] 93 % of control

CC(=O)Nc1c([N+](=O)[O-])ccc(Cl)c1Cl
inactive: [7] 98 % of control | [8] 97 % of control

Cc1c[nH]c(=O)cn1
inactive: [12] 97 % of control | [13] 94 % of control | [14] 90 % of control | [15] 104 % of control | [16] 93 % of control | [17] 104 % of control

CN(C)S(=O)(=O)c1ccc2c(c1)N(CCCN1CCN(S(C)(=O)=O)CC1)c1ccccc1S2
inactive: [18] 95 % of control | [19] 101 % of control | [12] 91 % of control | [14] 98 % of control | [16] 106 % of control

CCOC(=O)C(Cc1ccccc1Cl)(NC(C)=O)C(=O)OCC
inactive: [2] 93 % of control | [3] 100 % of control | [20] 104 % of control

Cc1ccc(NC(=O)Nc2ccc(C)cc2C)cc1
inactive: [21] 90 % of control | [22] 98 % of control | [23] 92 % of control

CCOC12c3c4cccc3C(=O)c3cccc(c31)C(=O)c1cccc(c12)C4=O
inactive: [2] 103 % of control | [24] 105 % of control | [3] 111 % of control | [25] 93 % of control | [20] 109 % of control | [26] 96 % of control

CN(C)c1nc2c(N)ncnc2n1C1OC(CO)C(O)C1O (configuration not stated)
inactive: dose: 6.25 mg/kg/injection, schedule: Q01DX009 (ip), vehicle: saline 100 % of control | dose: 12.5 mg/kg/injection, schedule: Q01DX005 (ip), vehicle: saline 95 % of control | dose: 12.5 mg/kg/injection, schedule: Q01DX009 (ip), vehicle: saline 96 % of control | dose: 25.0 mg/kg/injection, schedule: Q01DX005 (ip), vehicle: saline 101 % of control | [18] 110 % of control | dose: 50.0 mg/kg/injection, schedule: Q01DX005 (ip), vehicle: saline 108 % of control

CC(=O)N1Cc2c(N)ncnc2C1C (configuration not stated)
inactive: [9] 100 % of control | [10] 108 % of control | [11] 114 % of control

CC(=O)Nc1ccc(NC(=O)Nc2cccc(F)c2)cc1
inactive: [2] 92 % of control | [3] 89 % of control | [20] 92 % of control

Nc1nc(N)c(CCCCc2ccc([N+](=O)[O-])cc2)c(N)n1
inactive: dose: 100.0 mg/kg/injection, schedule: Q01DX009 (ip), vehicle: Klucel (hydroxypropylcellulose) (HPC) 100 % of control | dose: 200.0 mg/kg/injection, schedule: Q01DX009 (ip), vehicle: Klucel (hydroxypropylcellulose) (HPC) 102 % of control | dose: 400.0 mg/kg/injection, schedule: Q01DX009 (ip), vehicle: Klucel (hydroxypropylcellulose) (HPC) 94 % of control

CCCCCCCC(=O)Nc1cccc(O)c1
inactive: [24] 96 % of control | [25] 95 % of control | [26] 96 % of control

c1cc[n+]2c(c1)CC[n+]1ccccc1CC2
inactive: dose: 50.0 mg/kg/injection, schedule: Q01DX001 (ip), vehicle: carboxymethylcellulose (CMC) 106 % of control | [21] 100 % of control | [22] 122 % of control | [23] 106 % of control

O=c1[nH]c(=O)n(C2SC(CO)C(O)C2O)cc1F (configuration not stated)
inactive: dose: 18.8 mg/kg/injection, schedule: Q04DX003 (ip), vehicle: saline 102 % of control | dose: 37.5 mg/kg/injection, schedule: Q04DX003 (ip), vehicle: saline 94 % of control | dose: 50.0 mg/kg/injection, schedule: Q04DX003 (ip), vehicle: saline 94 % of control | dose: 100.0 mg/kg/injection, schedule: Q01DX005 (ip), vehicle: saline 97 % of control | dose: 200.0 mg/kg/injection, schedule: Q01DX005 (ip), vehicle: saline 95 % of control

O=C1CC=C(Nc2ccc(Br)cc2)C(=O)O1
inactive: [13] 106 % of control | [15] 108 % of control | [17] 108 % of control

O=Cc1c[nH]c(=O)[nH]c1=O
inactive: [19] 109 % of control | [4] 94 % of control | [12] 103 % of control | [13] 95 % of control | [5] 105 % of control | [14] 106 % of control | [15] 103 % of control | [6] 101 % of control | [17] 95 % of control

C/[N+]([O-])=N\Nc1c(Cl)cc(Cl)cc1Cl
inactive: [1] 94 % of control | [2] 105 % of control | [3] 102 % of control
